Reference: the supplement of paper PMC10307832

Assays:
Assay in all cases: relative viability (nuclei count vs DMSO), 5 days (fraction); higher = more cells survive
AZD5582 + Tozasertib = compound: C[C@@H](C(=O)N[C@@H](C1CCCCC1)C(=O)N2CCC[C@H]2C(=O)N[C@@H]3[C@@H](CC4=CC=CC=C34)OCC#CC#CCO[C@@H]5CC6=CC=CC=C6[C@@H]5NC(=O)[C@@H]7CCCN7C(=O)[C@H](C8CCCCC8)NC(=O)[C@H](C)NC)NC [AZD5582] + Cc1cc(Nc2cc(N3CCN(C)CC3)nc(Sc3ccc(NC(=O)C4CC4)cc3)n2)n[nH]1 [Tozasertib] (partner 0.1 µM)
Outline: (§1)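 One day after seeding in 1536-well plates, lung cancer cell lines were dosed by pin tool. Dosing was either single-drug or a fixed anchor-drug dose plus five library-drug doses (not always all listed) in √10 steps. After 5 days, nuclei were stained in one fix-and-stain step and counted on 4× images, and relative viability is the nuclei count of treated wells over that of vehicle wells, given as the median of duplicate plates.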

[1] = compound: Cn1nnc2c(C(N)=O)ncn2c1=O [Temozolomide] + CC1(C)CCC(c2ccc(Cl)cc2)=C(CN2CCN(c3ccc(C(=O)NS(=O)(=O)c4ccc(N[C@H](CCN5CCOCC5)CSc5ccccc5)c(S(=O)(=O)C(F)(F)F)c4)cc3)CC2)C1 [Navitoclax] (partner 0.5 µM)
Outline: as §1

[2] = compound: Cn1nnc2c(C(N)=O)ncn2c1=O [Temozolomide] + C[C@]1(O)C[C@@H](c2nc(-c3ccc4ccc(-c5ccccc5)nc4c3)c3c(N)nccn32)C1 [Linsitinib] (partner 1 µM)
Outline: as §1

[3] = compound: Cn1nnc2c(C(N)=O)ncn2c1=O [Temozolomide] + CC(=O)c1c(C)c2cnc(Nc3ccc(N4CCNCC4)cn3)nc2n(C2CCCC2)c1=O [Palbociclib] (partner 0.5 µM)
Outline: as §1

Cell Line | relative viability (AZD5582 + Tozasertib; first compound 0.001581 µM) | relative viability (AZD5582 + Tozasertib; first compound 0.005 µM) | relative viability (AZD5582 + Tozasertib; first compound 0.01581 µM) | relative viability (AZD5582 + Tozasertib; first compound 0.05 µM) | relative viability ([1]; first compound 0.2 µM) | relative viability ([1]; first compound 0.6325 µM) | relative viability ([1]; first compound 2 µM) | relative viability ([1]; first compound 6.325 µM) | relative viability ([1]; first compound 20 µM) | relative viability ([2]; first compound 0.2 µM) | relative viability ([2]; first compound 0.6325 µM) | relative viability ([2]; first compound 2 µM) | relative viability ([2]; first compound 6.325 µM) | relative viability ([2]; first compound 20 µM) | relative viability ([3]; first compound 0.2 µM) | relative viability ([3]; first compound 0.6325 µM) | relative viability ([3]; first compound 2 µM) | relative viability ([3]; first compound 6.325 µM) | relative viability ([3]; first compound 20 µM)
NCI-H1734 | 0.255 | 0.263 | 0.257 | 0.313 | 0.803 | 0.854 | 0.886 | 0.811 | 0.835 | 0.824 | 0.811 | 0.986 | 0.865 | 0.845 | 0.359 | 0.398 | 0.349 | 0.355 | 0.353
EKVX | 0.309 | 0.41 | 0.388 | 0.371 | 0.856 | 0.962 | 0.902 | 0.976 | 0.597 | 0.442 | 1.05 | 1.04 | 1.06 | 0.707 | – | 0.322 | 0.292 | 0.323 | 0.223
NCI-H1915 | 0.379 | 0.452 | 0.447 | 0.42 | 0.797 | 0.754 | 0.684 | 0.495 | 0.305 | 1.15 | 1.02 | 0.969 | 0.711 | 0.402 | 0.546 | 0.483 | 0.521 | 0.399 | 0.228
NCI-H1395 | 0.703 | 0.714 | 0.81 | 0.797 | 1.26 | 1.14 | 1.14 | 1.1 | 1.05 | 0.821 | 1.05 | 1.31 | 0.978 | 1.04 | 0.532 | 0.62 | 0.663 | 0.616 | 0.535
HCC-366 | 0.0633 | 0.134 | – | 0.155 | 1.07 | 1.18 | 1.14 | 1.17 | 0.918 | 0.607 | 0.708 | 0.72 | 0.709 | 0.762 | 0.449 | 0.467 | 0.341 | 0.396 | 0.369
HCC-44 | 0.482 | 0.642 | 0.798 | 0.324 | 0.972 | 1.02 | 0.913 | 0.966 | 0.983 | 0.668 | 0.741 | 0.681 | 0.718 | 0.562 | 0.984 | 0.943 | 0.921 | 0.988 | 0.981
COR-L 105 | 0.373 | 0.404 | 0.282 | 0.418 | 0.819 | 0.866 | 0.996 | 0.858 | 0.649 | 0.919 | 1.01 | 1.03 | 0.797 | 0.7 | 0.433 | 0.446 | 0.402 | 0.383 | 0.33
LK-2 | 0.161 | 0.174 | 0.149 | 0.182 | 0.756 | 0.874 | 0.851 | 0.475 | 0.35 | 0.359 | 0.543 | 0.418 | 0.382 | 0.253 | 0.599 | 0.719 | 0.601 | 0.327 | 0.2
LCLC-97TM1 | 0.206 | 0.235 | 0.206 | 0.187 | 0.546 | 0.443 | 0.49 | 0.445 | 0.512 | 0.191 | 0.19 | 0.173 | 0.176 | 0.203 | 0.272 | 0.237 | 0.197 | 0.231 | 0.191
PC-3 [JPC-3] | 0.775 | 0.909 | 0.804 | 0.42 | 0.725 | 0.847 | 0.784 | 0.82 | 0.364 | 0.932 | 0.975 | 0.941 | 0.987 | 0.499 | 0.541 | 0.554 | 0.543 | 0.545 | 0.433
LCLC-103H | 0.377 | 0.409 | 0.455 | 0.315 | – | – | – | – | – | 1.03 | 1.05 | 1.23 | 1.09 | 1.01 | 0.503 | 0.514 | 0.496 | 0.608 | 0.413
NCI-H1648 | – | 0.549 | 0.37 | 0.615 | – | – | – | – | – | – | – | – | – | – | – | 0.23 | 0.318 | 0.273 | 0.283
NCI-H1623 | 0.441 | 0.455 | 0.444 | 0.432 | – | – | – | – | – | – | – | – | – | – | – | – | – | – | –
NCI-H661 | 0.361 | 0.368 | 0.389 | 0.358 | – | – | – | – | – | – | 0.54 | 0.641 | 0.442 | 0.525 | 0.344 | 0.393 | 0.437 | 0.411 | 0.402
NCI-H2170 | 0.647 | 0.716 | 0.746 | 0.829 | – | 0.478 | 0.6 | 0.534 | 0.32 | – | – | – | – | – | – | 0.398 | 0.368 | 0.375 | 0.264
NCI-H596 | – | – | 0.943 | 0.338 | 0.9 | 0.924 | 0.946 | 0.977 | 0.981 | 1.16 | 1.08 | 1.02 | 1.09 | 1.02 | – | – | – | – | –
A549 | – | – | – | – | 1.07 | 1.34 | 1.25 | 1.23 | 1.24 | 0.348 | 0.684 | 0.759 | 0.517 | 0.467 | – | – | – | – | –
Calu-6 | – | – | – | – | 0.927 | 0.804 | 0.942 | 0.82 | 0.781 | 0.929 | 0.941 | 1.17 | 0.971 | 1.02 | – | – | – | – | –
NCI-H358 | 0.126 | 0.109 | 0.102 | 0.101 | – | – | – | – | – | 0.576 | 0.728 | 0.854 | 0.797 | 0.617 | 0.137 | 0.143 | 0.128 | 0.136 | 0.131
NCI-H522 | 0.592 | 0.491 | 0.594 | 0.524 | – | – | – | – | – | – | – | – | – | – | 0.976 | 0.919 | 1.05 | 1.02 | 0.682
NCI-H1563 | – | – | – | – | – | – | – | – | – | 1.14 | 1.26 | 1.39 | 1.23 | 1.22 | – | – | – | – | –
IA-LM | – | – | – | – | 0.832 | 0.69 | 0.836 | 0.825 | 0.615 | 0.941 | 0.518 | 0.664 | 0.548 | 0.909 | – | – | – | – | –
NCI-H2342 | 0.493 | 0.585 | 0.43 | 0.542 | – | – | – | – | – | – | – | – | – | – | 0.501 | 0.529 | 0.521 | 0.491 | 0.53
